{"source": "patent EP0173527A2", "about": "“Insulin-selective somatostatin analogs” (THE SALK INSTITUTE FOR BIOLOGICAL STUDIES, priority 1984, dated 1986)", "key": {"[1]": {"tested_on": "cells of rat pituitary glands", "test": "in vitro radioimmunoassay of growth hormone release from cultured rat pituitary cells, side-by-side comparison with somatostatin-14", "type": "cell-based", "details": "for biological activity / potency: comparative in vitro testing, compared with aSS-28", "experimental": "To determine the effectiveness of the peptides to inhibit the release of […], in vitro radioimmunoassays are carried out using aSS-28, [Lys^23]-aSS-28 and aSS(15-28) in side-by-side comparison with equimolar concentrations of somotostatin-14 having a known effectiveness to inhibit the release of growth hormone induced by the application of isobutyl methyl xanthine to pituitary cells. Cultures are used which include cells of rat pituitary glands removed some four to five days previously in a system that minimizes enzymatic degradation, generally following the procedure set forth in Vale et al., Methods in Enzymology, Hormones and Cyclic Nucleotides (1975) Vol. 37, p. 82. Both cultures of a defined standard medium and cultures which are considered optimal for the secretion of growth hormone, as a result of having additions of either 2% or 10% of serum from a foetal calf, are used for the comparative testing."}, "[2]": {"details": "synthetic SS-28; Pradayrol et al., FEBS Letters 109, 1980; cited from earlier work"}, "[3]": {"tested_on": "secretion of glucagon and insulin", "test": "in vivo inhibition of insulin (and glucagon) secretion, potency relative to somatostatin-14", "set-up": "species or system rats", "details": "basal and stimulated insulin secretion in mammals, including humans and dogs; compared with somatostatin-14 and somatostatin-28", "experimental": "In vivo experiments are carried out with aSS-28, using the procedure described in Brown et al., Metabolism (1976) Vol. 25, pp. 1501-1503, to determine the potency, relative to somatostatin-14, to inhibit the secretion of glucagon and insulin stimulated by the administration of arginine to groups of rats."}}, "note": "Entries after “also recorded” stand apart in the source; their conditions may differ. Positions of bridges follow the written chain, without caps; N, C: chain ends."}
{"substance": "H-Ala-Gly-Cys-Lys-Asn-Phe-Tyr-Trp-Hyl-Gly-Phe-Thr-Ser-Cys-OH [aSS(15-28)]", "values": [{"measurement": "biological activity / potency", "setting": "[1]", "result": "similarly biologically active although having somewhat lower potencies"}]}
{"substance": "H-Ser-Ala-Asn-Ser-Asn-Pro-Ala-Met-Ala-Pro-Arg-Glu-Arg-Lys-Ala-Gly-Cys-Lys-Asn-Phe-Phe-Trp-Lys-Thr-Phe-Thr-Ser-Cys-OH [SS-28]", "values": [{"measurement": "potency when administered in vivo", "setting": "[2]", "result": "increased potency"}]}
{"substance": "H-Ser-Val-Asp-Ser-Thr-Asn-Asn-Leu-Pro-Pro-Arg-Glu-Arg-Lys-Ala-Gly-Cys-Lys- Asn-Phe-Tyr-Trp-Lys-Gly-Phe-Thr-Ser-Cys-OH (H-SVDSTNNLPPRERKAGCKNFYWKGFTSC-OH; disulfide 17-28 (inferred); ends not checked) [[Lys 23]-aSS-28]", "values": [{"measurement": "biological activity / potency", "setting": "[1]", "result": "similarly biologically active although having somewhat lower potencies"}]}
{"substance": "H-Ser-Val-Asp-Ser-Thr-Asn-Asn-Leu-Pro-Pro-Arg-Glu-Arg-Lys-Ala-Gly-Cys-Lys-Asn-Phe-Tyr-Trp-Hyl-Gly-Phe-Thr-Ser-Cys-OH [aSS-28]", "values": [{"measurement": "potency to inhibit insulin secretion", "setting": "[3]", "result": "increased potency; also recorded: more potent than either somatostatin-14 or somatostatin-28"}, {"measurement": "insulin-selectivity", "setting": "[1]; inferred from GH inhibition compared with SS-14", "result": "likely insulin-selective; also recorded: extreme insulin-selectivity"}, {"measurement": "inhibition of GH", "setting": "[1]; release of growth hormone induced by isobutyl methyl xanthine, compared with equimolar SS-14", "result": "substantially less than SS-14"}]}
